The target of one experiment is GCGR (Homo sapiens, UniProt P47871). In words: Whole-cell binding assay, competition with 125I-GCG. The arrangement: V5 (C); 6×His (C); expressed in transfected cells; host or cells: CHO-K1. The following applies: Fig. 7c receptor binding profile, n = 3 in duplicate. As for the experimental part:
(§1) Human embryonic kidney 293 cells containing SV40 large T-antigen (HEK293T) were cultured in DMEM (Gibco) supplemented with 10% (v/v) fetal bovine serum (FBS, Gibco), 1 mM sodium pyruvate (Gibco) and 100 units/mL penicillin and 100 μg/mL streptomycin at 37 °C in 5% CO2. Chinese hamster ovary (CHO-K1) cells were cultured in F-12 (Gibco) containing 10% FBS, 100 units/mL penicillin and 100 μg/mL streptomycin at 37 °C in 5% CO2. For cAMP and receptor expression assays, HEK293T cells were seeded into 6-well cell culture plates at a density of 7 × 10^5 cells per well. After overnight incubation, cells were transfected with GIPR, GLP-1R or GCGR construct using Lipofectamine 2000 or Lipofectamine 3000 transfection reagent (Invitrogen). For whole-cell binding assay, CHO-K1 cells were seeded into 96-well fibronectin-treated cell culture plates at a density of 3 × 10^4 cells per well. After overnight incubation, cells were transfected with GIPR, GLP-1R or GCGR construct using Lipofectamine 2000 transfection reagent (Invitrogen). Following 24 h culturing, the transfected cells were ready for use.
For GLP-1R and GCGR, CHO-K1 cells (30,000 cells/well) were seeded into Isoplate-96 plates and incubated for 24 h at 37 °C in 5% CO2. The WT or mutant constructs were transiently transfected using Lipofectamine 2000 transfection reagent as previous described. They were then washed twice using F-12 with 0.1% BSA or 0.1% casein, 33 mM HEPES, and incubated for 2 h at 37 °C. […] Cells were washed three times with ice-cold PBS and lysed in PBS with 1% Triton X-100, 20 mM Tris-HCl. After addition of scintillation cocktail (PerkinElmer), radioactivity (CPM) was counted on a MicroBeta^2 microplate counter (PerkinElmer). Data were normalized to the WT response and analyzed using three-parameter logistic equation.

The target in the next experiment is T1, GIPR (Homo sapiens, UniProt P48546).
T1 sequence (P48546 22-466): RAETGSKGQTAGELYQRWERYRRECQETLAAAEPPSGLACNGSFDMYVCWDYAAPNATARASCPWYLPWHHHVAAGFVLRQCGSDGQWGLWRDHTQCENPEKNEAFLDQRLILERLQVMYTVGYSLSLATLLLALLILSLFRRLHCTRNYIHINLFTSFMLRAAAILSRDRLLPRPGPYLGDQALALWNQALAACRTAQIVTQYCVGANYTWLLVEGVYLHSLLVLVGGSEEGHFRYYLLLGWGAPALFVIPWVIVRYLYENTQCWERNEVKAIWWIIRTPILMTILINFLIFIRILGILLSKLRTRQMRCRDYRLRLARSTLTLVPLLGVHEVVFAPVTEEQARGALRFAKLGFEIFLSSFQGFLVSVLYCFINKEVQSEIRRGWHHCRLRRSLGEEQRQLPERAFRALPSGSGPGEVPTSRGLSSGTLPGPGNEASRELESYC
Nature of the experiment: Whole-cell binding assay, competition with 125I-GIP1-42. Also noted: acylated tirzepatide to the full-length or modified; Flag; expressed in transfected cells. The following applies: Fig. 7c receptor binding profile, n = 3 in duplicate. As to the method: as §1
For GIPR, CHO-K1 cells were cultured in F-12 medium with 10% FBS and seeded at a density of 30,000 cells/well in Isoplate-96 plates (PerkinElmer). The WT or mutant GIPR was transiently transfected using Lipofectamine 2000 transfection reagent as previous described. They were then washed twice using F-12 with 0.1% BSA or 0.1% casein, 33 mM HEPES, and incubated for 2 h at 37 °C. […] Following incubation, cells were washed three times with ice-cold PBS and lysed by addition of 50 μL lysis buffer (PBS supplemented with 20 mM Tris-HCl, 1% Triton X-100, pH 7.4). Fifty µL of scintillation cocktail (OptiPhase SuperMix, PerkinElmer) were added and the plates were subsequently counted for radioactivity (counts per minute, CPM) in a MicroBeta^2 microplate counter (PerkinElmer).

For experiment [1] the following is noted: clinical trial outcome; Drugs@FDA, ChemBL, ClinicalTrials.gov; cited from earlier work.
The target of another experiment is GLP-1R (Homo sapiens, UniProt P43220). In words: cAMP accumulation assay, GLP-1R WT, mutant or modified constructs. The class given is cell-based. Also noted: Flag; expressed in transfected cells; host or cells: HEK293T. As to conditions: GLP-1R; HEK293T, n = 4; SEM. As for the experimental part:
as §1
The human GLP-1R was modified with its native signal sequence (M1-P23) replaced by the HA signal peptide to facilitate receptor expression. To obtain a GLP-1R–Gs complex with good homogeneity and stability, we used the NanoBiT tethering strategy, in which the C terminus of GLP-1R was directly attached to LgBiT subunit followed by a TEV protease cleavage site and a double MBP tag. […] The constructs were cloned into both pcDNA3.1 and pFastBac vectors for functional assays in mammalian cells and protein expression in insect cells, respectively. Other constructs including the full-length and various mutants of human GLP-1R were cloned into pcDNA3.1 vector for cAMP accumulation and whole-cell binding assays.
For GIPR, GLP-1R and GCGR, multi-targeting agonist stimulated cAMP accumulation was measured by a LANCE Ultra cAMP kit (PerkinElmer). After 24 h culture, the transfected cells were seeded into 384-well microtiter plates at a density of 3,000 cells per well in HBSS supplemented with 5 mM HEPES, 0.1% (w/v) BSA or 0.1% (w/v) casein and 0.5 mM 3-isobutyl-1-methylxanthine. The cells were stimulated with different concentrations of peptide agonists for 40 min at RT. Eu-cAMP tracer and ULight^TM-anti-cAMP were then diluted by cAMP detection buffer and added to the plates separately to terminate the reaction. Plates were incubated at RT for 1 h and the fluorescence intensity measured at 620 nm and […] by an EnVision multilabel plate reader (PerkinElmer).
In general terms: Changes in cAMP serve as a functional read-out for many G protein-coupled receptors.

Data on 5 compounds can be found in publication PMC8881610 (Nature Communications, 2022).

Sequence of GCGR (P47871 26-477): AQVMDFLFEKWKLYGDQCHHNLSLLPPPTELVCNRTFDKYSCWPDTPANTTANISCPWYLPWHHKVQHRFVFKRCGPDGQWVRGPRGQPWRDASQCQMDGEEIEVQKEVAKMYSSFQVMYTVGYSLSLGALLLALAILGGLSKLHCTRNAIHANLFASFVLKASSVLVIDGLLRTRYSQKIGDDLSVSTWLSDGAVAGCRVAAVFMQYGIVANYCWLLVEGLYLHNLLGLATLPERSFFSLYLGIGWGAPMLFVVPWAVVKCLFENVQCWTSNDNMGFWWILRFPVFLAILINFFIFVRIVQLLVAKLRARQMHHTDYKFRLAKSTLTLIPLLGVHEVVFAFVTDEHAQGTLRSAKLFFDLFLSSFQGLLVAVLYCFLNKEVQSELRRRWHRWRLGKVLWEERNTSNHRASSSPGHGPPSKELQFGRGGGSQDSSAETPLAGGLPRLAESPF
Sequence of GLP-1R (P43220 24-463): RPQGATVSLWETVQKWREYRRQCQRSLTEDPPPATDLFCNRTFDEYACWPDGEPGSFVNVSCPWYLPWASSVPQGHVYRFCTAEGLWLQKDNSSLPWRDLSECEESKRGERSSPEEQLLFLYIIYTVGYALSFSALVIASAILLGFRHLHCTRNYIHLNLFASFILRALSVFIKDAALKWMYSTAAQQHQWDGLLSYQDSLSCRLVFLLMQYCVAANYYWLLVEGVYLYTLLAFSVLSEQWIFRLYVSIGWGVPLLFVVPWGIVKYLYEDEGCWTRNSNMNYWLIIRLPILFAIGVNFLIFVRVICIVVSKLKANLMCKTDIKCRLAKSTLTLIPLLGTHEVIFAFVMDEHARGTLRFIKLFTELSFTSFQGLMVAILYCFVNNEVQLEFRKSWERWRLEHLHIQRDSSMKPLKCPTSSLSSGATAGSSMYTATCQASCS

For `CC[C@H](C)[C@H](NC(=O)[C@H](CO)NC(=O)[C@H](Cc1ccc(O)cc1)NC(=O)[C@H](CC(=O)O)NC(=O)[C@H](CO)NC(=O)[C@@H](NC(=O)[C@H](Cc1ccccc1)NC(=O)[C@@H](NC(=O)CNC(=O)[C@H](CCC(=O)O)NC(=O)[C@H](C)NC(=O)[C@@H](N)Cc1ccc(O)cc1)[C@@H](C)O)[C@@H](C)CC)C(=O)N[C@@H](C)C(=O)N[C@@H](CCSC)C(=O)N[C@@H](CC(=O)O)C(=O)N[C@@H](CCCCN)C(=O)N[C@H](C(=O)N[C@@H](Cc1c[nH]cn1)C(=O)N[C@@H](CCC(N)=O)C(=O)N[C@@H](CCC(N)=O)C(=O)N[C@@H](CC(=O)O)C(=O)N[C@@H](Cc1ccccc1)C(=O)N[C@H](C(=O)N[C@@H](CC(N)=O)C(=O)N[C@@H](Cc1c[nH]c2ccccc12)C(=O)N[C@@H](CC(C)C)C(=O)N[C@@H](CC(C)C)C(=O)N[C@@H](C)C(=O)N[C@@H](CCC(N)=O)C(=O)N[C@@H](CCCCN)C(=O)NCC(=O)N[C@@H](CCCCN)C(=O)N[C@@H](CCCCN)C(=O)N[C@@H](CC(N)=O)C(=O)N[C@@H](CC(=O)O)C(=O)N[C@@H](Cc1c[nH]c2ccccc12)C(=O)N[C@@H](CCCCN)C(=O)N[C@@H](Cc1c[nH]cn1)C(=O)N[C@@H](CC(N)=O)C(=O)N[C@H](C(=O)N[C@H](C(=O)N[C@@H](CCC(N)=O)C(=O)O)[C@@H](C)O)[C@@H](C)CC)C(C)C)[C@@H](C)CC` [GIP1-42, glucose-dependent insulinotropic polypeptide], the “GCGR (pIC50 ± S.E.M.)” value on GCGR was “N.B”.

`CCCCCCCCCCCCCCCC(=O)N[C@@H](CCC(=O)NCCCC[C@H](NC(=O)[C@H](C)NC(=O)[C@H](C)NC(=O)[C@H](CCC(N)=O)NC(=O)CNC(=O)[C@H](CCC(=O)O)NC(=O)[C@H](CC(C)C)NC(=O)[C@H](Cc1ccc(O)cc1)NC(=O)[C@H](CO)NC(=O)[C@H](CO)NC(=O)[C@@H](NC(=O)[C@H](CC(=O)O)NC(=O)[C@H](CO)NC(=O)[C@@H](NC(=O)[C@H](Cc1ccccc1)NC(=O)[C@@H](NC(=O)CNC(=O)[C@H](CCC(=O)O)NC(=O)[C@H](C)NC(=O)[C@@H](N)Cc1c[nH]cn1)[C@@H](C)O)[C@@H](C)O)C(C)C)C(=O)N[C@@H](CCC(=O)O)C(=O)N[C@@H](Cc1ccccc1)C(=O)N[C@H](C(=O)N[C@@H](C)C(=O)N[C@@H](Cc1c[nH]c2ccccc12)C(=O)N[C@@H](CC(C)C)C(=O)N[C@H](C(=O)N[C@@H](CCCNC(=N)N)C(=O)NCC(=O)N[C@@H](CCCNC(=N)N)C(=O)NCC(=O)O)C(C)C)[C@@H](C)CC)C(=O)O` [Liraglutide]: the “GIPR (pIC50 ± S.E.M.)” value on GIPR is “N.B”. The “GCGR (pIC50 ± S.E.M.)” value on GCGR is on record as “N.B”.

On to “Albiglutide: approved GLP-1 analog, GLP-1R mono-agonist”, for which, in the experiment with GIPR, the “GIPR (pIC50 ± S.E.M.)” value was “N.B”. Also, in experiment [1], the Body weight is -0.04 kg or %, the Fasting plasma glucose is listed as -30.00 mg/dL and the HAb1c is listed as -1.3%. In addition, in the experiment with GLP-1R, the “cAMP Emax ± S.E.M.” value is listed as 100.13 ± 1.66 % max GLP-1(7-36)NH2 and the “cAMP pEC50 ± S.E.M.” value came out at 11.02 ± 0.05. Also, in the experiment with GCGR, the “GCGR (pIC50 ± S.E.M.)” value is reported as “N.B”.

For the compound “Dulaglutide: approved GLP-1R mono-agonist”, in experiment [1], the Body weight is -0.20 kg or %, the Fasting plasma glucose was -34.20 mg/dL and the HAb1c is on record as -1.45%.

Turning to Exenatide: approved GLP-1R mono-agonist, in experiment [1], the Body weight is -0.65 kg or %, the Fasting plasma glucose is listed as -34.20 mg/dL and the HAb1c is given as -1.21%.
